Test results published in EPA's ToxValDB 9.5 (doi:10.2903/j.efsa.2009.269r).

How the values were obtained:
Anas platyrhynchos = conditions: acute; oral; unspecified; mortality
Apis mellifera = conditions: acute; duration: 48 hours; dermal; mortality
Bibionidae = conditions: chronic/long-term; duration: 28 days
Canidae = conditions: chronic; duration: 1 years; oral; Dog Other; organ weight
Daphnia magna = conditions: chronic/long-term; duration: 21 days; reproduction
Folsomia candida = conditions: chronic/long-term; reproduction
Rattus norvegicus = conditions: for NOAEL: histopathology: nonneoplastic
Tagia sp. = conditions: mortality
Aphidius rhopalosiphi = experiment: LR50; higher = less toxic; conditions: not reported; mortality

With Clc1ccccc1-c1nnc(-c2ccccc2Cl)nn1 [Clofentezine] the LD50 (Anas platyrhynchos) was over 3000 mg/kg-day, the LD50 (Apis mellifera) was over 84.5 µg/piece and the NOEC (Bibionidae) was 0.5 mg/L. For the same molecule, the NOAEL (Canidae) was 1.7 mg/kg-day, the LC50 (Colinus virginianus; acute, oral, diet, mortality) was over 4000 mg/kg-day and the NOEC (Colinus virginianus; reproduction developmental) was 7.62 mg/kg-day. It also gave an NOEC (Daphnia magna) of 0.025 mg/L, an NOEC (Folsomia candida) of 160 mg/kg and an LC50 (Oncorhynchus mykiss; acute, duration: 96 hours, mortality) of over 0.0146 µg/mL. It also gave an NOEC (Oncorhynchus mykiss; chronic/long-term, duration: 97 days) of 0.007 mg/L, an LD50 (Rattus norvegicus; acute, oral, mortality) of over 5200 mg/kg-day and an NOEC (Rattus norvegicus; chronic) of 40 mg/kg-day. For the same molecule, the NOAEL (Rattus norvegicus; chronic, duration: 2 years) was 2 mg/kg-day, the NOAEL (Rattus norvegicus; subchronic, duration: 90 days, oral) was 2.65 mg/kg-day and the LC50 (Tagia sp.; acute) was 430 mg/kg. It also gave an NOEC (Tagia sp.; chronic/long-term) of 5310 mg/kg and an LR50 (Aphidius rhopalosiphi) of 36.2 g/ha.
